Measurements as given in ChEMBL document CHEMBL1149357, “Propionylpiperazines as human melanocortin-4 receptor ligands” (Bioorg Med Chem Lett, 2006).

How the values were obtained:
Melanocortin receptor 4 [1] = biological target: T1, Melanocortin receptor 4 (Homo sapiens, UniProt P32245); test: Displacement of [125I]NDP-MSH from human MC4R stably expressed in HEK293 cells; format: cell-based
[2] = Drug level in mouse brain at 5 mg/kg, iv after 4 hrs; format: ADME, organism-based; design: dose 5 mg/kg, route intravenous; conditions: read-out: Drug uptake
[3] = Tmax in mouse at 10 mg/kg, po; format: ADME, organism-based; design: dose 10 mg/kg, route oral; conditions: in vivo
[4] = Drug level in mouse brain at 5 mg/kg, iv after 1 hr; format: ADME, organism-based; design: dose 5 mg/kg, route intravenous; conditions: read-out: Drug uptake
[5] = Bioavailability in mouse at 10 mg/kg, po; format: ADME, organism-based; conditions: in vivo
Melanocortin receptor 4 [6] = biological target: T1, Melanocortin receptor 4; test: Activity at MC4R assessed as inhibition of alpha MSH-stimulated cAMP production in HEK293 cells; format: functional, cell-based
[7] = Lipophilicity, log D of the compound; format: physicochemical; conditions: octanol/water
Mus musculus [8] = test: AUC in mouse at 5 mg/kg, iv; format: ADME, organism-based, Plasma; design: dose 5 mg/kg, route intravenous; conditions: in vivo
Mus musculus [9] = test: AUC in mouse at 10 mg/kg, po; format: ADME, organism-based, Plasma; design: dose 10 mg/kg, route oral; conditions: in vivo
[10] = Clearance in mouse at 5 mg/kg, iv; format: ADME, organism-based; design: dose 5 mg/kg, route intravenous; conditions: in vivo
Melanocortin receptor 3 = Melanocortin receptor 3 (Homo sapiens, UniProt P41968); test: Displacement of [125I]NDP-MSH from human MC3R stably expressed in HEK293 cells; format: cell-based
Sequence of Melanocortin receptor 3 (P41968 whole entry): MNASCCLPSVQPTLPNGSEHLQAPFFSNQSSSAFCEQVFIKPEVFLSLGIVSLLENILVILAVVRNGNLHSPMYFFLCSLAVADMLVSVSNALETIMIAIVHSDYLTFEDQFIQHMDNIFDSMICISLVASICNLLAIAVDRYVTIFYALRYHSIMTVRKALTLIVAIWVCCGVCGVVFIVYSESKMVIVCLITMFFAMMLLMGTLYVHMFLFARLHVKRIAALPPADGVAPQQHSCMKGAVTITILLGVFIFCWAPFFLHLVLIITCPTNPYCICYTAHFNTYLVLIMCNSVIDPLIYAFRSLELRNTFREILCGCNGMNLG

[11] = Volume of distribution in mouse at 5 mg/kg, iv; format: ADME, organism-based; design: dose 5 mg/kg, route intravenous; conditions: in vivo, read-out: Vdss
Melanocortin receptor 5 = Melanocortin receptor 5 (Homo sapiens, UniProt P33032); test: Displacement of [125I]NDP-MSH from human MC5R stably expressed in HEK293 cells; format: cell-based
Sequence of Melanocortin receptor 5 (P33032 whole entry): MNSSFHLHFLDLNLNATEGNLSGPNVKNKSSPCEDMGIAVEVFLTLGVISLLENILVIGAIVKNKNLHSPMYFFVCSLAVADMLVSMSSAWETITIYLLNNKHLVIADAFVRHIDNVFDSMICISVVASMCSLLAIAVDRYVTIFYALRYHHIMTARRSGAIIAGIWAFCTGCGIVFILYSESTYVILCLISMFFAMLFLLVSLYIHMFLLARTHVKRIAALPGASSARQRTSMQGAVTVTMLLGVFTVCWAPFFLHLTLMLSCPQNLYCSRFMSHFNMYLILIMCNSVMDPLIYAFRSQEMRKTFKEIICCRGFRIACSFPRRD

[12] = Cmax in mouse at 10 mg/kg, po; format: ADME, organism-based; design: dose 10 mg/kg, route oral; conditions: in vivo
[13] = biological target: Melanocyte-stimulating hormone receptor (Homo sapiens, UniProt Q01726); test: Displacement of [125I]NDP-MSH from human MC1R stably expressed in HEK293 cells; format: cell-based
[14] = Half life in mouse at 5 mg/kg, iv; format: ADME, organism-based; design: dose 5 mg/kg, route intravenous; conditions: in vivo

T1 sequence (P32245 whole entry): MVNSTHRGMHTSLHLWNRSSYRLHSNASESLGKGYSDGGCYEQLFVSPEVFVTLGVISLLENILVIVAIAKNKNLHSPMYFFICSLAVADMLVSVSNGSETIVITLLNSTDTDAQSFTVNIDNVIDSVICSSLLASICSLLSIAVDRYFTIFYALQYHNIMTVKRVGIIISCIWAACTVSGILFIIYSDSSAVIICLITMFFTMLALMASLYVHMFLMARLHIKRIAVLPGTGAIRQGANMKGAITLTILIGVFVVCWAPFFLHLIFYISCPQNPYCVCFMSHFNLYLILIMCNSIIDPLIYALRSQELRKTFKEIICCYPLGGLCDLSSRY

| SMILES | Ki (Melanocortin receptor 4 [1]) | further results |
| --- | --- | --- |
| Cc1ccc(OCC(=O)N2CCN(c3ccc(C(F)(F)F)cc3[C@@H](N)CC(C)C)CC2)c(C)c1 | 4000 nM |  |
| Cc1ccc(CC(C)C(=O)N2CCN(c3ccc(C(F)(F)F)cc3[C@@H](N)CC(C)C)CC2)c(C)c1 (stereo not given in full) | 92 nM |  |
| Cc1cc(CC(C)C(=O)N2CCN(c3ccc(C(F)(F)F)cc3[C@@H](N)CC(C)C)CC2)ccc1Cl (stereo not given in full) | 71 nM |  |
| CC(C)C[C@H](N)c1cc(C(F)(F)F)ccc1N1CCN(C(=O)C(C)Cc2ccc(Cl)cc2O)CC1 (stereo not given in full) | 36 nM |  |
| CC(C)C[C@H](N)c1cc(C(F)(F)F)ccc1N1CCN(C(=O)CCC(N)=O)CC1 | > 10000 nM |  |
| CC(C)C[C@H](N)c1cc(C(F)(F)F)ccc1N1CCN(C(=O)CCCC2CCCCC2)CC1 | 4100 nM |  |
| COc1ccc(CC(C)C(=O)N2CCN(c3ccc(C(F)(F)F)cc3[C@@H](N)CC(C)C)CC2)cc1F (stereo not given in full) | 200 nM |  |
| CC(C)C[C@H](N)c1cc(C(F)(F)F)ccc1N1CCN(C(=O)C(C)Cc2ccc(Cl)c(Cl)c2)CC1 (stereo in doubt; 8q) | 1600 nM |  |
| CC(C)C[C@H](N)c1cc(C(F)(F)F)ccc1N1CCN(C(=O)CSc2ccc(Cl)cc2Cl)CC1 | 1500 nM |  |
| COc1cccc(CC(C)C(=O)N2CCN(c3ccc(C(F)(F)F)cc3[C@@H](N)CC(C)C)CC2)c1 (stereo not given in full) | 3100 nM |  |
| CC(C)C[C@H](N)c1cc(C(F)(F)F)ccc1N1CCN(C(=O)COc2cccc(Cl)c2)CC1 | 2600 nM |  |
| COc1cc(Cl)ccc1CC(C)C(=O)N1CCN(c2ccc(C(F)(F)F)cc2[C@@H](N)CC(C)C)CC1 (stereo not given in full) | 14 nM | concentration at 4 h [2]: 122 ng/g; Tmax [3]: 0.25 h; concentration at 1 h [4]: 735 ng/g; bioavailability [5]: 8.6%; IC50 (Melanocortin receptor 4 [6]): 1700 nM; logD [7]: > 4; AUC (Mus musculus [8]): 1450 ng·h/mL; AUC (Mus musculus [9]): 249 ng·h/mL; clearance [10]: 62.3 mL/min/kg; Ki (Melanocortin receptor 3): 320 nM; Vd [11]: 10.3 L/kg; Ki (Melanocortin receptor 5): 86 nM; Cmax [12]: 99 ng/mL; Activity [13]: 23%; half-life [14]: 1.9 h |
| COc1cc(Cl)ccc1C[C@@H](C)C(=O)N1CCN(c2ccc(C(F)(F)F)cc2[C@@H](N)CC(C)C)CC1 | 6.5 nM |  |
| Cc1ccc(OCC(=O)N2CCN(c3ccc(C(F)(F)F)cc3[C@@H](N)CC(C)C)CC2)cc1 | 4400 nM |  |
| COc1cc(Cl)ccc1C[C@@H](C)C(=O)N1CCN(c2ccc(C)cc2[C@@H](N)CC(C)C)CC1 | 8.1 nM |  |
| COc1ccc(CC(C)C(=O)N2CCN(c3ccc(C(F)(F)F)cc3[C@@H](N)CC(C)C)CC2)cc1 (stereo not given in full) | 120 nM |  |
| CCOc1cccc(CC(C)C(=O)N2CCN(c3ccc(C(F)(F)F)cc3[C@@H](N)CC(C)C)CC2)c1 (stereo not given in full) | 2200 nM |  |
| CC(C)C[C@H](N)c1cc(C(F)(F)F)ccc1N1CCN(C(=O)Cc2ccc(Cl)cc2Cl)CC1 | 2800 nM |  |
| CC(C)C[C@H](N)c1cc(C(F)(F)F)ccc1N1CCN(C(=O)C(C)Cc2cccc(Cl)c2)CC1 (stereo not given in full) | 920 nM |  |
| CC(C)C[C@H](N)c1cc(C(F)(F)F)ccc1N1CCN(C(=O)COc2ccc(Cl)c(Cl)c2)CC1 | 2500 nM |  |

| SMILES | Ki (Melanocortin receptor 4 [1]) | further results |
| --- | --- | --- |
| CC(C)C[C@H](N)c1cc(C(F)(F)F)ccc1N1CCN(C(=O)COc2ccc3ccccc3c2)CC1 | 2000 nM |  |
| CC(C)C[C@H](N)c1cc(C(F)(F)F)ccc1N1CCN(C(=O)CC(C)C(=O)c2ccc(Cl)cc2)CC1 (stereo not given in full) | 1100 nM |  |
| CC(C)C[C@H](N)c1cc(C(F)(F)F)ccc1N1CCN(C(=O)COc2ccc([N+](=O)[O-])cc2)CC1 | 3100 nM |  |
| CC(C)C[C@H](N)c1cc(C(F)(F)F)ccc1N1CCN(C(=O)COc2ccc(Cl)cc2)CC1 | 2900 nM |  |
| CC(C)C[C@H](N)c1ccccc1N1CCN(C(=O)[C@H](C)Cc2ccc(Cl)cc2)CC1 | 80 nM |  |
| CC(C)C[C@H](N)c1cc(C(F)(F)F)ccc1N1CCN(C(=O)COc2cccc3ccccc23)CC1 | 2600 nM |  |
| CC(C)C[C@H](N)c1cc(C(F)(F)F)ccc1N1CCN(C(=O)[C@@H](C)Cc2ccc(Cl)cc2Cl)CC1 | 140 nM |  |
| CC(C)C[C@H](N)c1cc(C(F)(F)F)ccc1N1CCN(C(=O)COc2ccc(Cl)cc2Cl)CC1 | 4200 nM |  |
| CC(C)C[C@H](N)c1cc(C(F)(F)F)ccc1N1CCN(C(=O)CCC2CCCCC2)CC1 | 5700 nM |  |
| CC(C)C[C@H](N)c1cc(C(F)(F)F)ccc1N1CCN(C(=O)CCNC2CCCCC2)CC1 | 4800 nM |  |
| CC(C)C[C@H](N)c1cc(C(F)(F)F)ccc1N1CCN(C(=O)Cn2cnc3ccccc32)CC1 | 2100 nM |  |
| Cc1ccc(N2CCN(C(=O)[C@H](C)Cc3ccc(Cl)cc3F)CC2)c([C@@H](N)CC(C)C)c1 | 20 nM |  |
| CC(C)C[C@H](N)c1cc(C(F)(F)F)ccc1N1CCN(C(=O)C(C)Cc2ccc(Cl)cc2F)CC1 (stereo not given in full) | 60 nM |  |
| Cc1ccc(CC(C)C(=O)N2CCN(c3ccc(C(F)(F)F)cc3[C@@H](N)CC(C)C)CC2)cc1C (stereo not given in full) | 240 nM |  |
| CC(C)C[C@H](N)c1cc(C(F)(F)F)ccc1N1CCN(C(=O)CNc2ccccc2)CC1 | 3600 nM |  |
| Cc1ccc(N2CCN(C(=O)[C@H](C)Cc3ccc(Cl)cc3)CC2)c([C@@H](N)CC(C)C)c1 | 25 nM | concentration at 4 h [2]: 330 ng/g; Tmax [3]: 0.5 h; concentration at 1 h [4]: 940 ng/g; bioavailability [5]: 34.4%; IC50 (Melanocortin receptor 4 [6]): 560 nM; logD [7]: 3; AUC (Mus musculus [8]): 2560 ng·h/mL; AUC (Mus musculus [9]): 1760 ng·h/mL; clearance [10]: 33.3 mL/min/kg; Ki (Melanocortin receptor 3): 1300 nM; Vd [11]: 10.2 L/kg; Ki (Melanocortin receptor 5): 1000 nM; Cmax [12]: 267 ng/mL; Ki [13]: 3100 nM; half-life [14]: 3.5 h |
| CC(C)C[C@H](N)c1cc(C(F)(F)F)ccc1N1CCN(C(=O)CCC(=O)c2ccc(Cl)cc2)CC1 | 820 nM |  |
| COc1ccc(CC(C)C(=O)N2CCN(c3ccc(Cl)cc3[C@@H](N)CC(C)C)CC2)cc1 (stereo not given in full) | 160 nM |  |
| Cc1cc(Cl)ccc1CC(C)C(=O)N1CCN(c2ccc(C(F)(F)F)cc2[C@@H](N)CC(C)C)CC1 (stereo not given in full) | 38 nM |  |
| CC(C)C[C@H](N)c1ccccc1N1CCN(C(=O)[C@H](C)Cc2ccc(Cl)cc2F)CC1 | 67 nM |  |

| SMILES | Ki (Melanocortin receptor 4 [1]) | further results |
| --- | --- | --- |
| COc1ccc(OCC(=O)N2CCN(c3ccc(C(F)(F)F)cc3[C@@H](N)CC(C)C)CC2)cc1 | 3800 nM |  |
| CC(C)C[C@H](N)c1cc(C(F)(F)F)ccc1N1CCN(C(=O)COc2ccccc2)CC1 | > 10000 nM |  |
| Cc1ccc(N2CCN(C(=O)[C@H](C)Cc3ccc(Cl)cc3Cl)CC2)c([C@@H](N)CC(C)C)c1 | 8.8 nM |  |
| Cc1cc(Cl)ccc1C[C@@H](C)C(=O)N1CCN(c2ccccc2[C@@H](N)CC(C)C)CC1 | 12 nM |  |
| COc1cc(CC(C)C(=O)N2CCN(c3ccc(C(F)(F)F)cc3[C@@H](N)CC(C)C)CC2)ccc1Cl (stereo not given in full) | 230 nM |  |
| CC(C)C[C@H](N)c1cc(Cl)ccc1N1CCN(C(=O)C(C)Cc2ccc(Cl)cc2)CC1 (stereo not given in full) | 67 nM |  |
| CC(C)C[C@H](N)c1cc(C(F)(F)F)ccc1N1CCN(C(=O)[C@H](C)Cc2ccc(Cl)cc2)CC1 | 31 nM |  |
| CC(C)C[C@H](N)c1cc(C(F)(F)F)ccc1N1CCN(C(=O)C(C)Cc2ccc(Cl)cc2)CC1 (stereo not given in full) | 47 nM |  |
| CC(C)C[C@H](N)c1ccccc1N1CCN(C(=O)[C@H](C)Cc2ccc(Cl)cc2Cl)CC1 | 16 nM |  |
| CC(C)C[C@H](N)c1cc(C(F)(F)F)ccc1N1CCN(C(=O)COc2ccccc2Cl)CC1 | 4500 nM |  |
| CC(C)C[C@H](N)c1cc(C(F)(F)F)ccc1N1CCN(C(=O)C(C)Cc2ccc(Cl)c(Cl)c2)CC1 (stereo in doubt; 8j) | 120 nM |  |
| CC(C)C[C@H](N)c1cc(C(F)(F)F)ccc1N1CCN(C(=O)COc2ccc(O)cc2)CC1 | 4600 nM |  |
| COc1cc(Cl)ccc1CC(C)C(=O)N1CCN(c2ccc(Cl)cc2[C@@H](N)CC(C)C)CC1 (stereo not given in full) | 9.1 nM |  |
| COc1cc(Cl)ccc1C[C@H](C)C(=O)N1CCN(c2ccc(C(F)(F)F)cc2[C@@H](N)CC(C)C)CC1 | 31 nM |  |
| CC(C)C[C@H](N)c1cc(C(F)(F)F)ccc1N1CCN(C(=O)CCC(=O)N(C)C)CC1 | > 10000 nM |  |
| Cc1cc(Cl)ccc1C[C@@H](C)C(=O)N1CCN(c2ccccc2[C@H](N)CC(C)C)CC1 | 1700 nM |  |
| CC(C)C[C@H](N)c1cc(C(F)(F)F)ccc1N1CCN(C(=O)COc2cccc(Cl)c2Cl)CC1 | 2500 nM |  |
| CC(C)C[C@H](N)c1cc(F)ccc1N1CCN(C(=O)C(C)Cc2ccc(Cl)cc2)CC1 (stereo not given in full) | 390 nM |  |
| CC(C)C[C@H](N)c1cc(C(F)(F)F)ccc1N1CCN(C(=O)[C@H](C)Cc2ccc(Cl)cc2Cl)CC1 | 26 nM |  |
| Cc1ccc(N2CCN(C(=O)[C@H](C)Cc3ccc(Cl)cc3C)CC2)c([C@@H](N)CC(C)C)c1 | 5.9 nM |  |
